# Measured values reported in patent US11976061B2, “Preparation of benzimidazolone derivatives as novel diacylglyceride O-acyltransferase 2 inhibitors” (Merck Sharp & Dohme LLC, priority 2020, dated 2024).
# Biological target: T1, human DGAT2 (hDGAT2) (Homo sapiens, UniProt Q96PD7)
# T1 construct: made in house; host or cells: Sf-9 insect cells (baculovirus), membrane fraction
# T1 sequence (Q96PD7 1-388): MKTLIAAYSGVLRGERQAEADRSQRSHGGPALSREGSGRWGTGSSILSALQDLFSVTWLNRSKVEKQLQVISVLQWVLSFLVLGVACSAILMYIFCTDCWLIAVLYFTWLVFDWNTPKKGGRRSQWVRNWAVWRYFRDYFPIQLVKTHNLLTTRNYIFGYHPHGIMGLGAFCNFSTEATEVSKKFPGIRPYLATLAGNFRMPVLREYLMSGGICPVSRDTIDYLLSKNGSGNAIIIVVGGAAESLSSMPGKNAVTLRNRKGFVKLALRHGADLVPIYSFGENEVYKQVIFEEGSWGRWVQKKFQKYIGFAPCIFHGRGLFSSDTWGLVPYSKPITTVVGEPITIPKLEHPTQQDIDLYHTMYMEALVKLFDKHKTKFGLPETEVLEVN
# Experiment: DGAT2 Enzymatic Activity Assay
# Assay type: biochemical
# Settings: membrane prep of Sf-9 cells expressing hDGAT2; 25 μM diolein, 5 μM 13C oleoyl-CoA; 13C18-triolein by LC/MS/MS; read-out: DGAT2 IC50
# Outline: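 Membranes from Sf-9 cells expressing untagged human DGAT2 (8 ng/μL) incubated at rt in 100 mM Tris·Cl pH 7.0, 20 mM MgCl2, 5% ethanol with 25 μM diolein and 5 μM 13C oleoyl-CoA. 13C18-triolein product quantified by LC/MS/MS against 13C21-triolein internal standard; IC50 by 4-parameter fit.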
row,SMILES,IC50
1,"CCn1c(=O)n(-c2cccc(OC(F)F)c2)c2ccc(C(=O)NC3(C)CS(=O)(=O)C3)cc21 [Example 40, 1-(3-(Difluoromethoxy)phenyl)-3-ethyl-N-(3-methyl-1,1-dioxidothietan-3-yl)-2-oxo-2,3-dihydro-1H-benzo[d]imidazole-5-carboxamide]",194 nM
2,"CC1(NC(=O)c2ccc3c(c2)n(C2CC2)c(=O)n3-c2cccc(OC(F)F)c2)CCS(=O)(=O)CC1 [Example 41, 3-Cyclopropyl-1-(3-(difluoromethoxy)phenyl)-N-(4-methyl-1,1-dioxidotetrahydro-2H-thiopyran-4-yl)-2-oxo-2,3-dihydro-1H-benzo[d]imidazole-5-carboxamide]",211 nM
3,"CC1(NC(=O)c2ccc3c(c2)n(CCC(F)(F)F)c(=O)n3-c2cccc(OC(F)F)c2)CCS(=O)(=O)CC1 [Example 42, 1-(3-(Difluoromethoxy)phenyl)-N-(4-methyl-1,1-dioxidotetrahydro-2H-thiopyran-4-yl)-2-oxo-3-(3,3,3-trifluoropropyl)-2,3-dihydro-1H-benzo[d]imidazole-5-carboxamide]",405 nM
4,"CC1(NC(=O)c2ccc3c(c2)n(CC(F)(F)F)c(=O)n3-c2cccc(OC(F)F)c2)CS(=O)(=O)C1 [Example 43, 1-(3-(Difluoromethoxy)phenyl)-N-(3-methyl-1,1-dioxidothietan-3-yl)-2-oxo-3-(2,2,2-trifluoroethyl)-2,3-dihydro-1H-benzo[d]imidazole-5-carboxamide]",202 nM
5,"CC1(NC(=O)c2ccc3c(c2)n(CC(F)(F)F)c(=O)n3-c2cccc(OC(F)F)c2)CCS(=O)(=O)CC1 [Example 44, 1-(3-(difluoromethoxy)phenyl)-N-(4-methyl-1,1-dioxidotetrahydro-2H-thiopyran-4-yl)-2-oxo-3-(2,2,2-trifluoroethyl)-2,3-dihydro-1H-benzo[d]imidazole-5-carboxamide]",87 nM
6,"CC(=O)Nc1ccc(-n2c(=O)n(C(C)C)c3cc(C(=O)NC4(C)CS(=O)(=O)C4)ccc32)cc1O [Example 47, 1-(4-acetamido-3-hydroxyphenyl)-3-isopropyl-N-(3-methyl-1,1-dioxidothietan-3-yl)-2-oxo-2,3-dihydro-1H-benzo[d]imidazole-5-carboxamide]",> 10000 nM
7,"Cc1nc2c(-n3c(=O)n(C(C)C)c4cc(C(=O)NC5(C)CS(=O)(=O)C5)ccc43)cccc2o1 [Example 48, 3-isopropyl-N-(3-methyl-1,1-dioxidothietan-3-yl)-1-(2-methylbenzo[d]oxazol-4-yl)-2-oxo-2,3-dihydro-1H-benzo[d]imidazole-5-carboxamide]",> 10000 nM
8,"Cc1nc2ccc(-n3c(=O)n(C(C)C)c4cc(C(=O)NC5(C)CS(=O)(=O)C5)ccc43)cc2o1 [Example 49, 3-isopropyl-N-(3-methyl-1,1-dioxidothietan-3-yl)-1-(2-methylbenzo[d]oxazol-6-yl)-2-oxo-2,3-dihydro-1H-benzo[d]imidazole-5-carboxamide]",> 10000 nM
9,"CC(C)n1c(=O)n(-c2cccc(F)c2)c2ccc(C(=O)NC3(C)CCS(=O)(=O)CC3)cc21 [Example 50, 1-(3-fluorophenyl)-3-isopropyl-N-(4-methyl-1,1-dioxidotetrahydro-2H-thiopyran-4-yl)-2-oxo-2,3-dihydro-1H-benzo[d]imidazole-5-carboxamide]",> 9990 nM
10,"CC(C)Oc1cc(-n2c(=O)n(C(C)C)c3cc(C(=O)NC4(C)CCS(=O)(=O)CC4)ccc32)c(F)cn1 [Example 51, 1-(5-fluoro-2-isopropoxypyridin-4-yl)-3-isopropyl-N-(4-methyl-1,1-dioxidotetrahydro-2H-thiopyran-4-yl)-2-oxo-2,3-dihydro-1H-benzo[d]imidazole-5-carboxamide]",251 nM
11,"CC(C)n1c(=O)n(-c2cccc(C#N)c2)c2ccc(C(=O)NC3(C)CCS(=O)(=O)CC3)cc21 [Example 52, 1-(3-cyanophenyl)-3-isopropyl-N-(4-methyl-1,1-dioxidotetrahydro-2H-thiopyran-4-yl)-2-oxo-2,3-dihydro-1H-benzo[d]imidazole-5-carboxamide]",> 9990 nM
12,"CC(C)n1c(=O)n(-c2cccc(C(F)(F)F)c2)c2ccc(C(=O)NC3(C)CCS(=O)(=O)CC3)cc21 [Example 53, 3-isopropyl-N-(4-methyl-1,1-dioxidotetrahydro-2H-thiopyran-4-yl)-2-oxo-1-(3-(trifluoromethyl)phenyl)-2,3-dihydro-1H-benzo[d]imidazole-5-carboxamide]",1830 nM
13,"CC(C)n1c(=O)n(-c2cccc(N(C)C)c2)c2ccc(C(=O)NC3(C)CCS(=O)(=O)CC3)cc21 [Example 54, 1-(3-(dimethylamino)phenyl)-3-isopropyl-N-(4-methyl-1,1-dioxidotetrahydro-2H-thiopyran-4-yl)-2-oxo-2,3-dihydro-1H-benzo[d]imidazole-5-carboxamide]",1320 nM
14,"CC(C)n1c(=O)n(-c2cccc(C(N)=O)c2)c2ccc(C(=O)NC3(C)CCS(=O)(=O)CC3)cc21 [Example 55, 1-(3-carbamoylphenyl)-3-isopropyl-N-(4-methyl-1,1-dioxidotetrahydro-2H-thiopyran-4-yl)-2-oxo-2,3-dihydro-1H-benzo[d]imidazole-5-carboxamide]",> 9990 nM
15,"CSc1cccc(-n2c(=O)n(C(C)C)c3cc(C(=O)NC4(C)CCS(=O)(=O)CC4)ccc32)c1 [Example 56, 3-isopropyl-N-(4-methyl-1,1-dioxidotetrahydro-2H-thiopyran-4-yl)-1-(3-(methylthio)phenyl)-2-oxo-2,3-dihydro-1H-benzo[d]imidazole-5-carboxamide]",367 nM
16,"CNS(=O)(=O)c1cccc(-n2c(=O)n(C(C)C)c3cc(C(=O)NC4(C)CCS(=O)(=O)CC4)ccc32)c1 [Example 57, 3-isopropyl-N-(4-methyl-1,1-dioxidotetrahydro-2H-thiopyran-4-yl)-1-(3-(N-methylsulfamoyl)phenyl)-2-oxo-2,3-dihydro-1H-benzo[d]imidazole-5-carboxamide]",> 9990 nM
17,"CC(C)n1c(=O)n(-c2cccc(S(C)(=O)=O)c2)c2ccc(C(=O)NC3(C)CCS(=O)(=O)CC3)cc21 [Example 58, 3-isopropyl-N-(4-methyl-1,1-dioxidotetrahydro-2H-thiopyran-4-yl)-1-(3-(methylsulfonyl)phenyl)-2-oxo-2,3-dihydro-1H-benzo[d]imidazole-5-carboxamide]",> 9990 nM
18,"CC1(NC(=O)c2ccc3c(c2)n(Cc2ccc(F)cc2)c(=O)n3-c2cccc(OC(F)F)c2)CCS(=O)(=O)CC1 [Example 59, 1-(3-(difluoromethoxy)phenyl)-3-(4-fluorobenzyl)-N-(4-methyl-1,1-dioxidotetrahydro-2H-thiopyran-4-yl)-2-oxo-2,3-dihydro-1H-benzo[d]imidazole-5-carboxamide]",38 nM
19,"Cn1c(=O)n(-c2cccc(OC(F)F)c2)c2ccc(C(=O)NC3(C)CS(=O)(=O)C3)cc21 [Example 60, 1-(3-(difluoromethoxy)phenyl)-3-methyl-N-(3-methyl-1,1-dioxidothietan-3-yl)-2-oxo-2,3-dihydro-1H-benzo[d]imidazole-5-carboxamide]",1090 nM
20,"Cc1nnc(NC(=O)c2ccc3c(c2)n(C(C)C)c(=O)n3-c2cccc(OC(F)F)c2)s1 [Example 61, 1-(3-(difluoromethoxy)phenyl)-3-isopropyl-N-(5-methyl-1,3,4-thiadiazol-2-yl)-2-oxo-2,3-dihydro-1H-benzo[d]imidazole-5-carboxamide]",> 9990 nM
21,"CCn1cc(CNC(=O)c2ccc3c(c2)n(C(C)C)c(=O)n3-c2cccc(OC(F)F)c2)cn1 [Example 63, 1-(3-(difluoromethoxy)phenyl)-N-((1-ethyl-1H-pyrazol-4-yl)methyl)-3-isopropyl-2-oxo-2,3-dihydro-1H-benzo[d]imidazole-5-carboxamide]",> 9990 nM

# Same assay, conditions: membrane prep of Sf-9 cells expressing hDGAT2; 25 μM diolein, 5 μM 13C oleoyl-CoA; 13C18-triolein by LC/MS/MS; read-out: Human DGAT2 IC50
row,SMILES,IC50
1,"CC(C)(O)Cn1c(=O)n(-c2cccc(OC(F)F)c2)c2ccc(C(=O)NC3(C)CS(=O)(=O)C3)cc21 [Example 64, 1-(3-(difluoromethoxy)phenyl)-3-(2-hydroxy-2-methylpropyl)-N-(3-methyl-1,1-dioxidothietan-3-yl)-2-oxo-2,3-dihydro-1H-benzo[d]imidazole-5-carboxamide]",35.6 nM
2,"CC(C)n1c(=O)n(-c2cc(OC(F)F)ccc2F)c2ccc(C(=O)NC3(C)CCS(=O)(=O)CC3)cc21 [Example 79, 1-(5-(Difluoromethoxy)-2-fluorophenyl)-3-isopropyl-N-(4-methyl-1,1-dioxidotetrahydro-2H-thiopyran-4-yl)-2-oxo-2,3-dihydro-1H-benzo[d]imidazole-5-carboxamide]",2.1 nM
3,"CC(C)n1c(=O)n(-c2cc(OC(F)F)ccc2F)c2ccc(C(=O)NC3(C)CS(=O)(=O)C3)cc21 [Example 80, 1-(5-(Difluoromethoxy)-2-fluorophenyl)-3-isopropyl-N-(3-methyl-1,1-dioxidothietan-3-yl)-2-oxo-2,3-dihydro-1H-benzo[d]imidazole-5-carboxamide]",7.7 nM
4,"CC(C)n1c(=O)n(-c2cc(OC(F)F)ccc2F)c2ccc(C(=O)N[C@@]3(C)CCS(=O)(=O)C3)cc21 [Example 81, (S)-1-(5-(Difluoromethoxy)-2-fluorophenyl)-3-isopropyl-N-(3-methyl-1,1-dioxidotetrahydrothiophen-3-yl)-2-oxo-2,3-dihydro-1H-benzo[d]imidazole-5-carboxamide]",6.3 nM
